Reference: US20260265267A1, “NOVEL COMPOUNDS WITH MTORC2-INHIBITORY ACTIVITY AND USES THEREOF” (Aliad Biopharma, priority 2023, published 2026)

Columns and labels:
[1] = target: T1, mTOR(CD) protein and mLST8 protein (Homo sapiens, UniProt P42345+Q9BVC4); experiment: mTOR(CD)-mLST8 binding assay (co-precipitation, Western blot); conditions: read-out: inhibition of the binding between mTOR(CD) and mLST8 proteins
T1 construct: mTOR C-terminal domain (mTOR(CD), a.a. 2179-2549); made in house; host or cells: E. coli (mTOR(CD)); insect Sf9 cells (mLST8, used as a crude extract)
Procedure: mLST8 binds to the mTOR C-terminal domain (mTOR(CD), a.a. 2179-2549). After binding to mTOR, mLST8 interacts with mSin1 and Rictor to complete the formation of the mTORC2 complex, serving as a scaffold. In order to evaluate the inhibitory activity of the compounds synthesized in Examples 1 to 70 on the binding between mLST8 protein and mTOR(CD) protein, the following mTOR(CD)-mLST8 binding assay was performed. Four types of compounds: HN2210, HN2213, HN2221 and HN2313 were used as the experimental target compounds.
Specifically, mTOR(CD) protein was overexpressed in E. coli, labeled with biotin, and then partially purified. mLST8 protein was overexpressed in insect Sf9 cells to obtain mLST8 extract. mTOR(CD)-biotin and mLST8 extract were incubated at 4° C. to induce binding between mTOR(CD)-biotin and mLST8 proteins, and then the mTOR(CD)-biotin and mLST8 complex were co-precipitated using avidin-agarose beads. The relative amounts of precipitated mTOR(CD)-biotin and mLST8 proteins were measured by Western blot analysis, as shown in FIG. 4. Four types of compounds were added during the incubation process of the mTOR(CD)-biotin and mLST8 extract.

[2] = test system: activated microglia in the brain of 5×FAD mice; experiment: Anti-inflammatory effect in the brain of 5×FAD mice (IBA-1 antibody staining); assay type: in vivo; conditions: 5 mg/kg, 14 days
Procedure: In order to evaluate the efficacy of HN2210, HN2213, and HN2313 on Alzheimer's disease-related symptoms, specifically regarding 1) memory and cognitive impairment, 2) amyloid plaques, 3) neurofibrillary tangles (NFTs), and 4) brain inflammation, an in vivo efficacy assessment of HN2210, HN2213 and HN2313 was conducted using 5×FAD Alzheimer's disease model mice. The 5×FAD mice were purchased from Jackson Lab, USA (Cat #034840-JAX) and crossed once with C57bl6 mice to produce F1 heterozygous offspring (Het). The compound was administered via intraperitoneal injection to 6-month-old 5×FAD Het mice, followed by behavioral testing. The normal control mice, which were littermates of the 5×FAD Het mice, were aged to 6 months and received DMSO injection at the same volume.
In order to assess the anti-inflammatory effect of HN2210, HN2213, and HN2313 compounds in the brains of Alzheimer's disease model mice, the following test was conducted using 5×FAD-DMSO mice without compound treatment, 5×FAD mice treated with HN2210, HN2213, or HN2313 compounds, and normal mice as controls. Specifically, brain inflammation is mediated by the activation of microglia, which can be stained using the IBA-1 antibody. Therefore, inflammation in the hippocampus of 5×FAD mouse can be assessed using immunostaining with the IBA-1 antibody. Brain slices were double-stained with the IBA-1 antibody and DAPI to label nuclei, and the dentate gyrus region of the hippocampus was observed under a confocal scanning microscope.

T1 sequence (P42345 2179-2549 limits assumed, species assumed): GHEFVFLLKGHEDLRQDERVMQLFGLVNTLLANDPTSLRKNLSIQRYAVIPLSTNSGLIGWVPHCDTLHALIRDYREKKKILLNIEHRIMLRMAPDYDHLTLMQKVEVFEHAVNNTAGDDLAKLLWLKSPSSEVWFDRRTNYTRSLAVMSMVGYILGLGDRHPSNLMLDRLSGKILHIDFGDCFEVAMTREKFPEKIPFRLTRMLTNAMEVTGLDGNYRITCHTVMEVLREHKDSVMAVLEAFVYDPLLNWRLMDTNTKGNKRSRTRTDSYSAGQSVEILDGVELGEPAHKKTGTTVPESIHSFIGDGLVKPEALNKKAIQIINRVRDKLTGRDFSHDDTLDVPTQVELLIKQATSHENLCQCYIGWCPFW
T1 sequence (Q9BVC4 whole entry, species assumed, the tested form may be a part): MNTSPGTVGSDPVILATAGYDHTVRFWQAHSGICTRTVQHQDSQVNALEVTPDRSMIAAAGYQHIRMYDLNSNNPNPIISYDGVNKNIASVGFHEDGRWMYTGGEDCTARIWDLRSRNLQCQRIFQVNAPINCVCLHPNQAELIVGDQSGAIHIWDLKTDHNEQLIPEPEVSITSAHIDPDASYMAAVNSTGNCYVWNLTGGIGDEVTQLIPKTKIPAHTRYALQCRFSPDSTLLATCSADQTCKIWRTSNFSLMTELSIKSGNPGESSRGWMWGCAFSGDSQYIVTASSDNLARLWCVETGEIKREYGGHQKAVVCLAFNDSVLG

Compound	inhibition at 4 µM [1] [%]	inhibition at 40 µM [1] [%]	reduction of IBA-1 antibody signals in the dentate gyrus compared to the 5×FAD-DMSO group [2] [%]
O=C1c2cc(F)c(N3CCOCC3)cc2COc2cc3c(cc21)OCO3 [HN2210, 8-(morpholino)-9-fluoro[2]benzoxepino[3,4-f]-1,3-benzodioxol-11(6H)-one]	24	36	50
O=C1c2cc(F)c(NCc3ccccc3)cc2COc2cc3c(cc21)OCO3 [HN2213, 8-(benzylamino)-9-fluoro[2]benzoxepino[3,4-f]-1,3-benzodioxol-11(6H)-one]	19	30	24
O=C1c2cc(F)c(NC3CCCC3)cc2COc2cc3c(cc21)OCO3 [HN2313, 8-(cyclopentylamino)-9-fluoro-[1,3]dioxolo[4′,5′:4,5]benzo[1,2-b]benzo[e]oxepin-11(6H)-one]	–	34	50
